# Data taken from US20240025862A1, “SUBSTITUTED N-PHENYLURACILS AND SALTS THEREOF, AND USE THEREOF AS HERBICIDAL ACTIVE SUBSTANCES” (Bayer Aktiengesellschaft, priority 2020, published 2024).
# What was measured:
# Type in all cases: in vivo
# [1] = system: Oryza sativa (ORYSA); experiment: Post-emergence crop plant compatibility, greenhouse pot test (also comparative test C); conditions: vs untreated controls
# In short: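 Visual damage versus untreated plants (0% = like control, 100% = plants died) was scored about 3 weeks after a post-emergence spray in greenhouse pots. Treatment: one-leaf stage, WP or EC in water at 600 l/ha with 0.5% additive; a/b/c mark different dosages on the same crop.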
# [2] = system: Alopecurus myosuroides (ALOMY); experiment: Post-emergence herbicidal action, greenhouse pot test (also comparative test C); conditions: Alopecurus myosuroides, 504 h, rated visually after about 3 weeks vs untreated controls, 100% = plants have died
# In short: (§1)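 Green parts of one-leaf-stage plants are sprayed at 600 l/ha with formulated compound plus 0.5% additive, then kept under optimum greenhouse conditions for about 3 weeks. Damage is scored visually, where 100% means dead plants and 0% means no difference from controls.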
# [3] = system: Setaria viridis (SETVI); experiment: as above; conditions: Setaria viridis, 504 h
# In short: as §1
# [4] = system: Echinochloa crus-galli (ECHCG); experiment: as above; conditions: Echinochloa crus-galli, 504 h, read-out: Post-emergence action against ECHCG in %
# In short: as §1
# [5] = system: Matricaria inodora (MATIN); experiment: as above; conditions: Tripleurospermum inodorum, 504 h, read-out: Post-emergence action against MATIN in %
# In short: as §1
# [6] = system: Triticum aestivum (TRZAS); experiment: Post-emergence crop plant compatibility, greenhouse pot test; conditions: vs untreated controls
# In short: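 Greenhouse pot test; post-emergence foliar spray at one-leaf stage, WP or EC in water + 0.5% additive, 600 l/ha. Visual rating after ~3 wk, % relative to untreated (0–100%).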
# [7] = system: Veronica persica (VERPE); experiment: Post-emergence herbicidal action, greenhouse pot test; conditions: Veronica persica, 504 h, read-out: Post-emergence action against VERPE
# In short: (§2)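 Activity was scored by eye about 3 weeks after treatment against untreated plants, where 100% means dead plants and 0% means no difference. Plants at the one-leaf stage received a foliar spray of WP or EC formulations in water plus 0.5% additive (600 l/ha, up to 20 g/ha). Plants were grown in sandy loam pots in a greenhouse for 2–3 weeks before spraying.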
# [8] = system: Avena fatua (AVEFA); experiment: as above; conditions: Avena fatua, 504 h, 20 g/ha, rated visually after about 3 weeks vs untreated controls, 100% = plants have died, read-out: Post-emergence action at 20 g/ha against AVEFA in %
# In short: as §2
# [9] = system: Viola tricolor (VIOTR); experiment: as above; conditions: Viola tricolor, 504 h, read-out: Post-emergence action against VIOTR
# In short: as §2
# [10] = system: Polygonum convolvulus (POLCO); experiment: as above; conditions: Fallopia convolvulus, 504 h, read-out: Post-emergence action against POLCO in %
# In short: as §2
# [11] = system: Amaranthus retroflexus (AMARE); experiment: as above; conditions: Amaranthus retroflexus, 504 h, rated visually after about 3 weeks vs untreated controls, 100% = plants have died
# In short: as §2
# [12] = system: Pharbitis purpurea (PHBPU); experiment: as above; conditions: Ipomoea purpurea, 504 h, read-out: Post-emergence action against PHBPU in %
# In short: as §2
# [13] = system: Abutilon theophrasti (ABUTH); experiment: as above; conditions: Abutilon theophrasti, 504 h, rated visually after about 3 weeks vs untreated controls, 100% = plants have died
# In short: as §2
compound,measurement,setting,value
"Cn1c(C(F)(F)F)cc(=O)n(-c2cc(Oc3ccccc3OCC(=O)OCC#N)c(Br)cc2F)c1=O [I.8-176, Cyanomethyl (2-{2-bromo-4-fluoro-5-[3-methyl-2,6-dioxo-4-(trifluoromethyl)-3,6-dihydropyrimidin-1(2H)-yl]phenoxy}phenoxy)acetate]",Post-emergence action against ORYSA (crop plant compatibility),[1]; 1.25 g/ha,0%
same,Post-emergence action against ORYSA (crop plant compatibility),[1]; 5 g/ha,20%
same,pest or weed control at 5 g/ha,"[2]; 5 g/ha, read-out: Post-emergence action at 5 g/ha against ALOMY in %",80%
same,pest or weed control at 20 g/ha,"[2]; 20 g/ha, read-out: Post-emergence action at 20 g/ha against ALOMY in %",100%
same,pest or weed control at 20 g/ha,"[3]; 20 g/ha, read-out: Post-emergence action against SETVI",100%
same,pest or weed control at 1.25 g/ha,"[3]; dosage 1.25 g/ha, read-out: Post-emergence action against SETVI in %",100%
same,pest or weed control at 5 g/ha,"[3]; dosage 5 g/ha, read-out: Post-emergence action against SETVI in %",100%
same,pest or weed control at 5 g/ha,[4]; dosage 5 g/ha,100%
same,pest or weed control at 20 g/ha,[4]; dosage 20 g/ha,100%
same,pest or weed control at 5 g/ha,[5]; dosage 5 g/ha,100%
same,pest or weed control at 20 g/ha,[5]; dosage 20 g/ha,100%
same,Post-emergence action against TRZAS (crop plant compatibility),[6]; 1.25 g/ha,0%
same,Post-emergence action against TRZAS (crop plant compatibility),[6]; 5 g/ha,20%
same,pest or weed control at 1.25 g/ha,[7]; 1.25 g/ha,100%
same,pest or weed control at 5 g/ha,[7]; 5 g/ha,100%
same,pest or weed control at 20 g/ha,[7]; 20 g/ha,100%
same,pest or weed control at 20 g/ha,[8],80%
same,pest or weed control at 1.25 g/ha,[9]; 1.25 g/ha,90%
same,pest or weed control at 5 g/ha,[9]; 5 g/ha,100%
same,pest or weed control at 20 g/ha,[9]; 20 g/ha,100%
same,pest or weed control at 5 g/ha,[10]; dosage 5 g/ha,80%
same,pest or weed control at 20 g/ha,[10]; dosage 20 g/ha,100%
same,pest or weed control at 1.25 g/ha,"[11]; 1.25 g/ha, read-out: Post-emergence action at 1.25 g/ha against AMARE in %",100%
same,pest or weed control at 5 g/ha,"[11]; 5 g/ha, read-out: Post-emergence action at 5 g/ha against AMARE in %",100%
same,pest or weed control at 20 g/ha,"[11]; 20 g/ha, read-out: Post-emergence action at 20 g/ha against AMARE in %",100%
same,pest or weed control at 1.25 g/ha,[12]; dosage 1.25 g/ha,80%
same,pest or weed control at 5 g/ha,[12]; dosage 5 g/ha,80%
same,pest or weed control at 20 g/ha,[12]; dosage 20 g/ha,100%
same,pest or weed control at 1.25 g/ha,"[13]; 1.25 g/ha, read-out: Post-emergence action at 1.25 g/ha against ABUTH in %",100%
same,pest or weed control at 5 g/ha,"[13]; 5 g/ha, read-out: Post-emergence action at 5 g/ha against ABUTH in %",100%
same,pest or weed control at 20 g/ha,"[13]; 20 g/ha, read-out: Post-emergence action at 20 g/ha against ABUTH in %",100%
